{
  "source": "patent US20120083471A1",
  "about": "“Novel Compounds, Pharmaceutical Compositions Containing Same, Methods of Use for Same, and Methods for Preparing Same” (priority 2008, published 2012)",
  "key": {"3T3-L1 adipocytes": {"system": "3T3-L1 adipocytes", "test": "Acylglyceride synthesis in 3T3-L1 adipocytes ([14C]palmitate labelling, TLC)", "format": "cell-based, mouse", "conditions": "for IC50: Mus musculus, 3T3-L1 adipocytes 7 days post-differentiation, 18 h treatment, linear regression, n=3", "method": "3T3-L1 Adipocytes 3T3-L1 cells were differentiated into adipocytes as described 34. Seven days post-differentiation, cells were treated with FSG67 at indicated concentrations for 18 h, then labeled with [14C]palmitate for 2 h. Following Folch extraction, lipids were subjected to polar and non-polar thin-layer chromatography 35. Triglyceride and phosphatidylcholine fractions were quantified with phosphorimaging (Storm 840, Molecular Dynamics, Piscataway, N.J.).\nMouse 3T3-L1 adipocytes were used to test the effect FSG67 on acylglyceride synthesis in vitro. […] As phosphatidylcholine was the predominant phospholipid synthesized in the 3T3-L1 adipocytes, it is representative of overall cellular phospholipid synthesis. […] Note the decrease in lipid droplets in the FSG67 treated cells compared to vehicle treated controls. Thus, FSG67 inhibits cellular acylglyceride synthesis with an IC50 similar to its inhibition of GPAT activity in mitochondrial preparations."}, "DIO mice": {"system": "DIO mice", "test": "Chronic 16 d FSG67 treatment of DIO mice with indirect calorimetry and pair-fed group", "format": "in vivo, mouse", "conditions": "5 mg/kg ip daily", "method": "(§1) For acute studies, 6 DIO or lean mice were treated with a single dose of FSG67 (20 mg/kg, i.p.) approximately 3 hrs past lights-on. Animal weights and food consumption were measured 18 h after treatment. Following euthanization, the hypothalmuses were harvested to measure orexigenic and anorexigenic neuropeptide gene expression. In the chronic studies, DIO mice, 4-10 animals per group, were treated daily with FSG67 (5 mg/kg, i.p.) or with RMPI vehicle for the days indicated. Body weight and food intake were measured daily. In one study, a cohort of mice was pair-fed with amounts consumed by the FSG67-treated animals and mice were monitored with indirect calorimetry (Oxymax Equal Flow System®, Columbus Instruments, Columbus, Ohio). Measurements of VO2 (ml/kg/hr) and VCO2 (ml/kg/hr) were performed and recorded every 15 min. The respiratory exchange ratio (RER) was calculated by Oxymax software, version 5.9, and is defined as ratio of VCO2 to VO2 33. After completion of the treatment course, animals were euthanized by CO2 inhalation 4 hrs following the final dose of FSG67. Tissues were harvested immediately for RNA extraction; serum was collected and analyzed for glucose, cholesterol, and triglyceride measurements (Bioanalytics, Gaithersburg, Md.). Fresh liver tissue was snap frozen in liquid N2, sectioned, and stained with hematoxylin and Oil Red O to visualize triglyceride droplets.\nIn the second chronic treatment study, indirect calorimetry was utilized to study changes in metabolism during GPAT inhibition. DIO mice (8 per group) were treated with FSG67 (5 mg/kg, ip), or pair-fed to FSG67 treated animals. Indirect calorimetry was utilized to measure changes in oxygen consumption (VO2) and respiratory exchange ratio (RER) between pair-fed and treated animals. After 16 days of treatment, the FSG67 treated mice lost 9.5±0.6% of body mass, pair-fed lost 5.5±0.9%, while vehicle controls gained 3.5±1.3% (FIG. 12c). The weight loss in the FSG67 treated animals was significant compared to both vehicle controls and pair-fed animals (p<0.0001, 2-way ANOVA). […] RER was reduced in FSG67 treated mice (0.732±0.002) compared to pair-fed (0.782±0.006) (p<0.0001, 2-way ANOVA) (FIG. 12f) indicating increased use of fatty acids for fuel in the FSG67 treated animals. The combination of increased VO2 and reduced RER in the FSG67 treated animals are consistent with increased fatty acid oxidation and energy utilization which likely contribute to their reduced body mass compared to the pair-fed controls."}, "lean mice": {"system": "lean mice", "test": "Intracerebroventricular FSG67 treatment of lean mice", "format": "in vivo, mouse", "conditions": "for weight lost: within 24 h", "method": "Chronic lateral cerebroventricle cannulas. For experiments requiring intracerebroventricular (i.c.v.) administration of compounds, mice were outfitted unilaterally with chronic indwelling cannulas aimed at the lateral cerebroventricle. After mice recovered from surgeries for one week, cannula placements were assessed by measuring food intake in response to i.c.v. neuropeptide Y (NPY, American Peptide Co., CA). Mice were given NPY (0.25 ηmol/2 μl injection) or sterile 0.9% saline vehicle via the i.c.v. cannula, and allowed 1-h access to grain-based pellets during the light phase. Mice that ate at least 0.5 g of food after NPY were used in the experiments. Eleven mice were given a 2 μL injection of RPMI-1640 without glucose (Cambrex, Md.) for vehicle control. Three days later, six mice received a 100 nmole dose of FSG67 in the vehicle while 5 mice received 320 nmoles of compound.\nWe administered FSG67 icy to determine whether GPAT inhibition acts centrally to reduce food intake. Lean mice were treated with FSG67 icy at doses 100 and 320 nmoles (approximately […] less than the 5 mg/kg single day systemic dose). Within 24 h, mice treated with 100 nmoles lost 0.75±0.4 g (p=0.016) while the 320 nmole group lost 1.8±0.3 g (p=0.0003); vehicle controls gained 0.43±0.1 g and 0.33±0.1 g respectively (FIG. 15a). The animal weight was regained within 48 h without a significant rebound (data not shown). […] Within 48 h, the animals began eating normally with slight hyperphagia in the 320 nmole group on days 3 and 4 (data not shown)."}, "[1]": {"system": "hypothalamic neuropeptide expression", "test": "Real-time RT-PCR of hypothalamic neuropeptides in DIO mice", "format": "in vivo, mouse", "method": "as §1\nReal-time RT-PCR. Hypothalamus, liver, and WAT of DIO and lean mice were harvested and immediately frozen in liquid nitrogen. Total RNA was isolated and real-time quantitative RT-PCR was performed as previously described (13). Gene-specific primer pairs were designed using Primer3 software (http://www-genome.wi.mit.edu/cgi-bin/primer/primer3_www.cgi/). […]\nAcute and chronic FSG67 treatment altered hypothalamic neuropeptide expression. Hypothalamic peptide expression was measured in the lean and DIO mice treated with a single dose of FSG67 (see FIG. 11) and in the chronically treated DIO mice (see FIG. 12) to further asses the mechanism responsible for reduced food intake. […]"}},
  "note": "“Also recorded” adds a separate entry of the source. Where two headings read alike, the source gives them in different places.",
  "data": [
    {"smiles": "CCCCCCCCCS(=O)(=O)Nc1ccccc1C(=O)O", "note": "[Compound 15g, 2-(Nonylsulfonamido)benzoic acid]", "values": [
      {"measurement": "triglyceride / lipid droplet accumulation", "setting": "3T3-L1 adipocytes; 3T3-L1 adipocytes, 48 h following treatment, photomicrographs, listed as FSG67", "result": "dose-dependent reduction; also recorded: reduction in lipid droplet accumulation"},
      {"measurement": "IC50", "setting": "3T3-L1 adipocytes; read-out: IC50 for cellular triglyceride synthesis", "result": 33.9, "unit": "µM"},
      {"measurement": "IC50", "setting": "3T3-L1 adipocytes; read-out: IC50 for phosphatidylcholine synthesis", "result": 36.3, "unit": "µM"},
      {"measurement": "average daily food consumption", "setting": "DIO mice; 16 days", "result": "2.0 ± 0.1", "unit": "g/day"},
      {"measurement": "body mass lost", "setting": "DIO mice; 16 days", "result": "9.5±0.6", "unit": "%"},
      {"measurement": "reduction of average daily food consumption vs vehicle", "setting": "DIO mice; 16 days", "result": 33, "unit": "%"},
      {"measurement": "average RER", "setting": "DIO mice; indirect calorimetry", "result": "0.732±0.002"},
      {"measurement": "average VO2, % of pre-treatment value", "setting": "DIO mice; indirect calorimetry", "result": "106.5±1.1", "unit": "%"},
      {"measurement": "weight lost", "setting": "lean mice; 100 nmoles icv", "result": "0.75 ± 0.4", "unit": "g"},
      {"measurement": "chow intake", "setting": "lean mice; 320 nmole icv", "result": "2.5 ± 0.3", "unit": "g"},
      {"measurement": "weight lost", "setting": "lean mice; 320 nmole icv", "result": "1.8 ± 0.3", "unit": "g"},
      {"measurement": "mouse weight one day following treatment", "setting": "lean mice; 100 and 320 nmole icv", "result": "significantly reduced"},
      {"measurement": "significant reduction in food intake", "setting": "lean mice; 100 vs 320 nmole icv, listed as FSG67", "result": "only occurred in the 320 nmole treatment group"},
      {"measurement": "time to regain animal weight", "setting": "lean mice; icv, without significant rebound", "result": "≤ 48", "unit": "h"},
      {"measurement": "hypothalamic AGRP, POMC and CART expression", "setting": "[1]; 16 d treated", "result": "unaffected"},
      {"measurement": "hypothalamic NPY expression", "setting": "[1]; 16 d treated, vs vehicle controls, listed as FSG67", "result": "significant reduction"},
      {"measurement": "hypothalamic AGRP expression", "setting": "[1]; single dose, vs vehicle controls and food-deprived (data not shown)", "result": "significantly increased"}
    ]}
  ]
}
